Measurements taken from PMC12519282, “Reduction of Negative Charge in Mercaptoacetyl-Based Chelators Influences the Biodistribution of Prostate-Specific Membrane Antigen-Targeting Pseudopeptides Labeled with Technetium-99m” (ACS Pharmacology & Translational Science, 2025).
Like-named read-outs stand apart in the source and are kept apart here. Marks after values point to notes of the source that are not given here.

Assays:
[1] = type: in vitro ADME, murine; conditions: 1 h
Method: (§1) To evaluate the label’s stability, 10 μL (0.25 μg) of radiolabeled conjugates was incubated with 300× molar excess of cysteine or with PBS for 1 h at room temperature. The test was run in triplicate. The release of free technetium-99m was controlled by using iTLC and radio-HPLC analysis. The stability in serum was analyzed by mixing the radioconjugates (0.25 μg in 10 μL) with murine serum or PBS (40 μL) as a control. The samples were incubated for 1 h at 37 °C and analyzed by iTLC. The experiment was performed in triplicate. The octanol–water distribution coefficient (Log D) was determined experimentally by the addition of 100 pmol of the radiolabeled tracer to an Eppendorf tube containing PBS (500 μL) and n-octanol (500 μL), pH ∼ 7.4. The solution was vortexed and centrifuged, and aliquots (50 μL) from each phase were collected and measured using a gamma counter. The experiment was performed in triplicate.

physchem = type: physicochemical; conditions: pH 7.4
Method: as §1

PC3-pip cells [2] = test: in vitro binding specificity test; type: cell-based; conditions: 1 h, 37 °C
Method: For the in vitro binding specificity test, approximately 8 × 10^5 PC3-pip cells per well were seeded 24 h before the experiment. […] Technetium-99m-labeled tracers were added to each well to reach a concentration of 2 nM. After 1 h of incubation at 37 °C, cells were washed with PBS solution, detached, and collected. Cell-associated activity was measured using a gamma counter and presented as the percentage of added activity.

PSMA = biological target: T1, PSMA (Homo sapiens, UniProt Q04609); test: binding kinetics in real time on living PC3-pip cells (LigandTracer Yellow)
T1 construct: expressed in transfected cells; host or cells: PC3-pip (PSMA-transfected PC-3 prostate carcinoma cells), from Prof; Martin G. Pomper, Johns Hopkins University
T1 sequence (Q04609 whole entry): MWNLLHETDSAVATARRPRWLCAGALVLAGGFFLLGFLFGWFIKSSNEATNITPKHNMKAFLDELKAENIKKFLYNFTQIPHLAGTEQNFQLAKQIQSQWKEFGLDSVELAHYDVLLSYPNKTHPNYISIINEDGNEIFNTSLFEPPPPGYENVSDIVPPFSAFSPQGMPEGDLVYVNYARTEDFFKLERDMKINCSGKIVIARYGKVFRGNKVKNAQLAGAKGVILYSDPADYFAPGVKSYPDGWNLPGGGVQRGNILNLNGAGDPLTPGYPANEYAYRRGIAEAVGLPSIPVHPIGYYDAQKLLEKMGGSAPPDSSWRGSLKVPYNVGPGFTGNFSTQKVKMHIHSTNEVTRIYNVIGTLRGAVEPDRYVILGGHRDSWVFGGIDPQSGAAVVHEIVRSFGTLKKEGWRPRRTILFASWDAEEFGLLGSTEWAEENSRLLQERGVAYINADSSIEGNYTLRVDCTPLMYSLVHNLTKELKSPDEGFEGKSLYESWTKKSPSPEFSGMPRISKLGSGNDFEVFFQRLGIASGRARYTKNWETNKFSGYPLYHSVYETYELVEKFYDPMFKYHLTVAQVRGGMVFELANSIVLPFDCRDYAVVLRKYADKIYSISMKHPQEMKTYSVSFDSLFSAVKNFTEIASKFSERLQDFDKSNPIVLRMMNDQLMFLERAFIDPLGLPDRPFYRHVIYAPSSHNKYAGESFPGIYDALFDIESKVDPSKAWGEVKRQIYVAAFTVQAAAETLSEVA
Method: The binding kinetics of technetium-99m-labeled BQ0413, BQ0500, and BQ0501 were determined in PC3-pip cells in real-time using LigandTracer Yellow (Ridgeview Instruments AB, Uppsala, Sweden). The activity binding was recorded with 5 nM radiolabeled tracers for 150 min. After the binding kinetics were measured, the medium containing the labeled tracer was replaced with fresh medium, and the dissociation was monitored over 7 h. The association rate (k a) and the dissociation rate (k d) were computed using a 1:2 kinetic binding model in TraceDrawer software (Ridgeview Instruments AB, Uppsala, Sweden), and the equilibrium dissociation constant K D was calculated.

PC3-pip cells [3] = test: cellular processing (membrane-bound / internalized activity); type: cell-based; conditions: 2 nM, continuous incubation, after 8 h
Method: To evaluate cellular processing of technetium-99m-labeled BQ0500 and BQ0501, PC3-pip cells were incubated with the radiolabeled tracer (2 nM), and at 1, 2, 4, and 8 h of continuous incubation, the membrane-bound and internalized fractions were collected as previously described using 4 M urea solution in 0.2 M glycine buffer (pH 2) to collect membrane-bound fraction and 1 N solution of NaOH to collect the internalized fraction. The activity in the samples was measured, and the percentage of membrane-bound and internalized activity was calculated. The experiments were performed in triplicate.

PC3-pip xenografts = test: biodistribution and tumor targeting in PC3-pip tumor-bearing mice; type: in vivo
From the text: The injected masses for the in vivo experiments were chosen based on the findings for [^99mTc]-Tc-BQ0413: to study the general biodistribution of radiolabeled tracers in normal mice (NMRI), 40 pmol of tracer was used to avoid blocking of PSMA-mediated uptake in kidneys and salivary glands, to study tumor targeting, 5 nmol of tracer was used to decrease uptake in PSMA-expressing organs.
PSMA-expressing PCa xenografts were implanted in BALB/c nu/nu mice by subcutaneous injection of the PC3-pip cell suspension in PBS (10^7 cells/animal in 100 μL). The average animal weight in the experiment was 18 ± 2 g. The average tumor weight was 0.4 ± 0.2 g. For in vivo specificity control, 10^7 cells/animal PSMA-negative PC-3 cells were implanted. The average animal weight was 18 ± 1 g. The average tumor weight was 0.1 ± 0.1 g. Four mice per data point were used in the in vivo experiments.
For tumor-bearing mice, each mouse was intravenously injected with 5 nmol of [^99mTc]-Tc-BQ0413, [^99mTc]-Tc-BQ0500, and [^99mTc]-Tc-BQ0501 (60 kBq; the mass of the injected compound was adjusted with an unlabeled tracer). The mice were euthanized after lethal intraperitoneal injection of ketamine/xylazine, followed by exsanguination 1 and 3 h pi, similarly to the procedure described above.

[4] = PC3-pip tumor-bearing mice, 5 nmol/mouse iv, 1 h pi
[5] = PC3-pip tumor-bearing mice, 5 nmol/mouse iv, 3 h pi
[6] = PC3-pip tumor-bearing mice, 5 nmol/mouse iv, 3 h pi, listed as [99mTc]Tc-BQ0500

For `CC(=O)NC(CCCCNC(=O)CNC(=O)C(CCC(=O)O)NC(=O)C(CO)NC(=O)C(CCC(=O)O)NC(=O)CS)C(=O)NCCCCCCCC(=O)NC(Cc1ccc(O)cc1)C(=O)NC(Cc1ccc2ccccc2c1)C(=O)NCCCCC(NC(=O)NC(CCC(=O)O)C(=O)O)C(=O)O` (stereo not shown) [[^99mTc]Tc-BQ0500, metal not drawn], the “intact tracer in PBS” value ([1]; PBS control, 37 °C, n = 3) was 99.0 ± 0.5%, the “intact tracer in murine serum” value ([1]; mouse, 5 µg/mL) was 99.7 ± 0.3% and the “Log D (octanol–water distribution coefficient)” value (physchem) was −2.5 ± 0.1. The “activity uptake by PC3-pip cells” value (PC3-pip cells [2]; 2 nM tracer) was 71 ± 4 % of added activity, the “activity uptake by PC3-pip cells after presaturation with PSMA-11” value (PC3-pip cells [2]; 250-fold excess of nonlabeled PSMA-11, 2 nM tracer) was “significantly (p < 0.0001) decreased” and the “B max1 (binding maximum)” value (PSMA; 5 nM tracer, 1:2 model (1:1 for BQ0413)) was 881 CPS. For the same molecule, the “B max2 (binding maximum)” value (PSMA; 5 nM tracer, 1:2 model, second interaction) was 40 CPS, the Kd (PSMA; 5 nM tracer, 1:2 model, second interaction, read-out: K D2) was 0.052 nM and the “affinity compromised in comparison with [99mTc]Tc-BQ0413” value (PSMA; PC3-pip cells) was 3–5 fold. The Kd (PSMA; as rounded in comparison table, read-out: K D1) was 0.3 nM, the Kd (PSMA; as rounded in comparison table, read-out: K D2) was 0.05 nM and the “maximum of internalized activity” value (PC3-pip cells [3]) was 42–43 % of cell-associated activity. The “activity uptake in intestines with content, higher compared to [99mTc]Tc-BQ0413” value (PC3-pip xenografts; PC3-pip tumor-bearing mice, 5 nmol) was 5.3 fold, the activity in carcass (PC3-pip xenografts; [4]) was 7 ± 1 ^b %IA/sample and the “activity in intestines with content” value (PC3-pip xenografts; [4]) was 3.9 ± 0.4 ^b, ^c, ^d %IA/sample. The “activity uptake in blood” value (PC3-pip xenografts; [4]) was 1.1 ± 0.2 ^b %IA/g, the “activity uptake in bone” value (PC3-pip xenografts; [4]) was 0.5 ± 0.1 ^b, ^d %IA/g and the “activity uptake in kidney” value (PC3-pip xenografts; [4]) was 51 ± 3 ^b ^c %IA/g. The “activity uptake in liver” value (PC3-pip xenografts; [4]) was 0.9 ± 0.2 ^b %IA/g, the “activity uptake in lung” value (PC3-pip xenografts; [4]) was 1.3 ± 0.2 ^b %IA/g and the “activity uptake in muscle” value (PC3-pip xenografts; [4]) was 0.3 ± 0.1 ^b %IA/g. For the same molecule, the “activity uptake in pancreas” value (PC3-pip xenografts; [4]) was 0.4 ± 0.1 ^b %IA/g, the “activity uptake in salivary gland” value (PC3-pip xenografts; [4]) was 0.7 ± 0.1 ^b ^, ^d %IA/g and the “activity uptake in small intestines” value (PC3-pip xenografts; [4]) was 0.6 ± 0.2 ^c %IA/g. For the same molecule, the “activity uptake in spleen” value (PC3-pip xenografts; [4]) was 2.5 ± 0.2 ^b %IA/g, the “activity uptake in stomach” value (PC3-pip xenografts; [4]) was 0.47 ± 0.02 ^d %IA/g and the “activity uptake in tumor” value (PC3-pip xenografts; [4]) was 29 ± 3 %IA/g. For the same molecule, the tumor-to-blood ratio (PC3-pip xenografts; [4]) was 28 ± 6 ^b, the tumor-to-bone ratio (PC3-pip xenografts; [4]) was 65 ± 15 ^b ^, ^d and the tumor-to-kidney ratio (PC3-pip xenografts; [4]) was 0.6 ± 0.1 ^b ^, ^c. For the same molecule, the tumor-to-liver ratio (PC3-pip xenografts; [4]) was 32 ± 7 ^b, the tumor-to-lung ratio (PC3-pip xenografts; [4]) was 23 ± 4 ^b and the tumor-to-muscle ratio (PC3-pip xenografts; [4]) was 101 ± 28 ^b. For the same molecule, the tumor-to-pancreas ratio (PC3-pip xenografts; [4]) was 69 ± 13, the tumor-to-salivary gland ratio (PC3-pip xenografts; [4]) was 42 ± 8 ^b ^, ^d and the tumor-to-small intestines ratio (PC3-pip xenografts; [4]) was 51 ± 20. The tumor-to-spleen ratio (PC3-pip xenografts; [4]) was 12 ± 2 ^b, the tumor-to-stomach ratio (PC3-pip xenografts; [4]) was 61 ± 7 ^d and the activity in carcass (PC3-pip xenografts; [5]) was 4 ± 1 ^d %IA/sample. For the same molecule, the “activity in intestines with content” value (PC3-pip xenografts; [5]) was 5.4 ± 0.3 ^c, ^d %IA/sample, the “activity uptake in blood” value (PC3-pip xenografts; [5]) was 0.3 ± 0.1 ^c ^, ^d %IA/g and the “activity uptake in bone” value (PC3-pip xenografts; [5]) was 0.10 ± 0.02 %IA/g. For the same molecule, the “activity uptake in kidney” value (PC3-pip xenografts; [5]) was 33 ± 3 ^c, ^d %IA/g, the “activity uptake in liver” value (PC3-pip xenografts; [5]) was 0.4 ± 0.1 ^c %IA/g and the “activity uptake in lung” value (PC3-pip xenografts; [5]) was 0.4 ± 0.1 ^c %IA/g. The “activity uptake in muscle” value (PC3-pip xenografts; [5]) was 0.10 ± 0.03 %IA/g, the “activity uptake in pancreas” value (PC3-pip xenografts; [5]) was 0.3 ± 0.2 %IA/g and the “activity uptake in salivary gland” value (PC3-pip xenografts; [5]) was 0.2 ± 0.1 ^d %IA/g. For the same molecule, the “activity uptake in small intestines” value (PC3-pip xenografts; [5]) was 0.4 ± 0.2 %IA/g, the “activity uptake in spleen” value (PC3-pip xenografts; [5]) was 1.4 ± 0.3 ^c %IA/g and the “activity uptake in stomach” value (PC3-pip xenografts; [5]) was 1.6 ± 1.2 ^c %IA/g. For the same molecule, the tumor-to-bone ratio (PC3-pip xenografts; [5]) was 341 ± 100 ^d, the tumor-to-kidney ratio (PC3-pip xenografts; [5]) was 1.0 ± 0.2 ^c and the tumor-to-liver ratio (PC3-pip xenografts; [5]) was 79 ± 22 ^c. For the same molecule, the tumor-to-lung ratio (PC3-pip xenografts; [5]) was 71 ± 15 ^c, the tumor-to-muscle ratio (PC3-pip xenografts; [5]) was 332 ± 99 and the tumor-to-pancreas ratio (PC3-pip xenografts; [5]) was 140 ± 82 ^c. The tumor-to-salivary gland ratio (PC3-pip xenografts; [5]) was 141 ± 42, the tumor-to-small intestines ratio (PC3-pip xenografts; [5]) was 94 ± 38 ^c and the tumor-to-spleen ratio (PC3-pip xenografts; [5]) was 22 ± 5 ^c. The tumor-to-stomach ratio (PC3-pip xenografts; [5]) was 38 ± 39 ^c, the activity in carcass (PC3-pip xenografts; [6]) was 4±1 %IA/sample and the “activity in intestines with content” value (PC3-pip xenografts; [6]) was 5.4±0.3 %IA/sample. The “activity uptake in blood” value (PC3-pip xenografts; [6]) was 0.3±0.1 %IA/g, the “activity uptake in bone” value (PC3-pip xenografts; [6]) was 0.10±0.02 %IA/g and the “activity uptake in kidney” value (PC3-pip xenografts; [6]) was 33±3 %IA/g. The “activity uptake in liver” value (PC3-pip xenografts; [6]) was 0.4±0.1 %IA/g, the “activity uptake in lung” value (PC3-pip xenografts; [6]) was 0.4±0.1 %IA/g and the “activity uptake in muscle” value (PC3-pip xenografts; [6]) was 0.10±0.03 %IA/g. For the same molecule, the “activity uptake in pancreas” value (PC3-pip xenografts; [6]) was 0.3±0.2 %IA/g, the “activity uptake in salivary gland” value (PC3-pip xenografts; [6]) was 0.2±0.1 %IA/g and the “activity uptake in small intestines” value (PC3-pip xenografts; [6]) was 0.4±0.2 %IA/g. For the same molecule, the “activity uptake in spleen” value (PC3-pip xenografts; [6]) was 1.4±0.3 %IA/g, the “activity uptake in stomach” value (PC3-pip xenografts; [6]) was 1.6±1.2 %IA/g and the “activity uptake in tumor” value (PC3-pip xenografts; [6]) was 31±4 %IA/g. The excretion pathway (PC3-pip xenografts; PC3-pip xenografts) was “predominantly renal”.
